Reference: US20060252708A1, “Compositions of flavones and long chain fatty acid derivatives isolated from plants and methods related thereto for the control of prostate disorders” (priority 2005, published 2006)

Assays:
Assay type in all cases: cell-based
androgen receptor (AR) = target: T1, androgen receptor (AR) (Homo sapiens, UniProt P10275); experiment: Androgen receptor activation, luciferase reporter gene system in U2OS cells; conditions: 10 nM andrusol, 24 hr incubation, FIG. 1 and FIG. 4
T1 construct: The full length AR cDNA was cloned from human's adipose tissue using PCR; expressed in transfected cells; host or cells: U2OS cells
T1 sequence (P10275 1-920): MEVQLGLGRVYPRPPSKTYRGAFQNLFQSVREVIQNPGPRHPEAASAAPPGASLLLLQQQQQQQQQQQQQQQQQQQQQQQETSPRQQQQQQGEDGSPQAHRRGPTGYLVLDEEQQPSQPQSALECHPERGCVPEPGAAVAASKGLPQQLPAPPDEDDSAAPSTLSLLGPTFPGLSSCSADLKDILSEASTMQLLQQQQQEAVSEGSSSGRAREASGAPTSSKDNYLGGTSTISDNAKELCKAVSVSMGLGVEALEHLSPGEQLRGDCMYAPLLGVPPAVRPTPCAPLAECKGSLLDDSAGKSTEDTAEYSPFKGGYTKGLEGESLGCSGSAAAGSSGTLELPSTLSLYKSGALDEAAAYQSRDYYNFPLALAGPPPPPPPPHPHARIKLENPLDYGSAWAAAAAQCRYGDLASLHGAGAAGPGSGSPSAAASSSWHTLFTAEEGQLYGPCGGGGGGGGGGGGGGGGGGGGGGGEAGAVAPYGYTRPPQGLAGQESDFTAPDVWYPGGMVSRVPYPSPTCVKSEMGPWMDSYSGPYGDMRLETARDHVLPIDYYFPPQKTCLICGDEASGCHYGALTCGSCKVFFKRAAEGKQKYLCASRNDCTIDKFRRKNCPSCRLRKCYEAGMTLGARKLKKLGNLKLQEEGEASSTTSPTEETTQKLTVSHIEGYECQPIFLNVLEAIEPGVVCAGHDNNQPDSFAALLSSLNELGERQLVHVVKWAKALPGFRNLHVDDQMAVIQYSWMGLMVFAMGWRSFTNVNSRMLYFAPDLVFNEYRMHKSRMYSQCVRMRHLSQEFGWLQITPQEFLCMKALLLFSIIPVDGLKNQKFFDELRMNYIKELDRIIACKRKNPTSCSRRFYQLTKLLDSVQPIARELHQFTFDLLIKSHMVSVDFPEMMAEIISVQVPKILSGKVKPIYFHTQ
Description: The activation of AR was performed using a luciferase reporting gene system. The full length AR cDNA was cloned from human's adipose tissue using PCR. The primer sequence 1 used was 5′-[…]-3′ (SEQ ID NO:1); the primer sequence 2 used was 5′-[…]-3′ (SEQ ID NO:2). The amplified PCR products were inserted into an expression vector, and then sequenced. The reporter genes were constructed using luciferase detected carrier pGL3-Promoter manufactured by Promega Ltd. Three copies of AR response element were inserted into upstream of pGL3-promoter (element sequence 3 used was 5′-[…] -3′) (SEQ ID NO:3). The co-transfection experiments were conducted in 96-well plates using U2OS cells. 24 hours after transfection, 10 nM andrusol, DMSO (0.1%), and testing compounds were added into cell culture for further 24 hr incubation.

[1] = test system: secreting PSA from LNCaP cells; experiment: ELISA of PSA secreted from LNCaP cells (inhibition of PSA secretion); conditions: for Rate of inhibition (%): Table 2, PSA secretion; for inhibition at 1 µg/mL: concentration 1 ug/ml; for inhibition at 3 µg/mL: concentration 3 ug/ml; for inhibition at 6.25 µg/mL: concentration 6.25 ug/ml
Description: For example, in cultured androgen-dependent prostate cancer cells as shown in An enzyme-linked immunoadsorbent assay was adopted to determine the level of secreting PSA from LNCaP cells, an androgen-dependent prostate epithelia cancer cells, by the above-mentioned flavones. At first, 100 μl polyclonal Ab at 4 μg/m was added to coat the microplate. They were placed for 12 hours at 4° C., and then washed by PBST and sealed the plate with PBST for 1 hour at 37° C. Supernatants from flavones or mock-treated cells were added into the plate to incubate at water bathed for 2 hours at 37° C. After washing, primary Ab at 200 ng/ml was added and incubated for 1 hour at 37° C. After washing, secondary Ab at 1:8000 was then added and incubated for 1 hour at room temperature. After washing, color reaction substrate was added and incubated for 10 min at dark, then added 2 N sulfuric acid to measure absorption at 492 nm.

[2] = target: T2, estrogen receptor-α (ERα) (Homo sapiens, UniProt P03372); experiment: Estrogen receptor-α activation, luciferase reporter gene system in U2OS cells; conditions: 10 nM estradiol, 24 hr incubation, FIG. 2
T2 construct: The full length ER-α and ER-β cDNA were separately cloned from human adipose tissue using PCR method; expressed in transfected cells; host or cells: U2OS cells
T2 sequence (P03372 1-595): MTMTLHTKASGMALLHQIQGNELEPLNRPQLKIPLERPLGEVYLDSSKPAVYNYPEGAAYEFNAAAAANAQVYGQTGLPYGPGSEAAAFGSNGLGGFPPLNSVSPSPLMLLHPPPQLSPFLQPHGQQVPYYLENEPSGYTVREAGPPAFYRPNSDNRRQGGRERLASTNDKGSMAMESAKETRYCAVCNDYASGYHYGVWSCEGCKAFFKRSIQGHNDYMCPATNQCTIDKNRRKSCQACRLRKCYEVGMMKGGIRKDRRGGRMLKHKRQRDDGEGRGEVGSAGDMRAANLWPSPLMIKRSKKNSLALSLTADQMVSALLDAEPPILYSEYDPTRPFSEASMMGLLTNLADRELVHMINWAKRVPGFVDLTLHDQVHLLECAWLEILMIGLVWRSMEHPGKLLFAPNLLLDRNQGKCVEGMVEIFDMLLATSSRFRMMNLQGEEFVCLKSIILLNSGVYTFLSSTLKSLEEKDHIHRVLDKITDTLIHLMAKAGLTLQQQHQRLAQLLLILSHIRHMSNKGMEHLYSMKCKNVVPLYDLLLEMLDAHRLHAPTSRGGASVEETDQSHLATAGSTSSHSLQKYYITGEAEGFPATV
Description: (§1) The activation evaluation of the ERs were performed using a luciferase reporter gene system. The full length ER-α and ER-β cDNA were separately cloned from human adipose tissue using PCR method. The primer sequence 4 (ERα) used was 5′-[…]-3′ (SEQ ID NO:4); the primer sequence 5 (ERα) used was 5′-[…]-3′(SEQ ID NO:5); the primer sequence 6 (ERβ) used was 5′-[…]-3′ (SEQ ID NO:6); the primer sequence 7 (ERβ) used was 5′-[…]-3′(SEQ ID NO:7). The amplified PCR products were inserted into expression vector and confirmed by sequencing. The report genes were constructed by using luciferase detected carrier pGL3-Promoter from Promega Ltd. Three copies of ER response element were inserted into the upstream of pGL3-Promoter (sequence 8 used was 5′-[…] -3′ (SEQ ID NO:8)). The co-transfection experiments were conducted in 96-well plates using U2OS cells. 24 hours after transfection, 10 nM estradiol, DMSO (0.1%), and testing compounds were added into cell culture for further 24 hr incubation.

[3] = target: T3, estrogen receptor-β (ERβ) (Homo sapiens, UniProt Q92731); experiment: Estrogen receptor-β activation, luciferase reporter gene system in U2OS cells; conditions: 10 nM estradiol, 24 hr incubation, FIG. 3
T3 construct: The full length ER-α and ER-β cDNA were separately cloned from human adipose tissue using PCR method; expressed in transfected cells; host or cells: U2OS cells
T3 sequence (Q92731 whole entry): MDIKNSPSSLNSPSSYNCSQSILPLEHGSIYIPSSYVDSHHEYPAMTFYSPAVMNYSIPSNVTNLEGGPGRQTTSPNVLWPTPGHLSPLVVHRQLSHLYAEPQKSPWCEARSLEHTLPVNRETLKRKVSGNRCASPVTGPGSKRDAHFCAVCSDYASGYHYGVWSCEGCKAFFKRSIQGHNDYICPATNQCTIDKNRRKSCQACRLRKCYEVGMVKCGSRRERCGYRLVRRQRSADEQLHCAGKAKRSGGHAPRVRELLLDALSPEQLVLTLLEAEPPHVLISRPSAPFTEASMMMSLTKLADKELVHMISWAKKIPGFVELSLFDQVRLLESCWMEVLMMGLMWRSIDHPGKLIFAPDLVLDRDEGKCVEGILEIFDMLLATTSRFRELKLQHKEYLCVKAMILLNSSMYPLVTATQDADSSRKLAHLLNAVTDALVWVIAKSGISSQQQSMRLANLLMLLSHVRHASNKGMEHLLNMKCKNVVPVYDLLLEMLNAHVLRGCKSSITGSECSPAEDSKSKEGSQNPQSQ
Description: as §1

[4] = Homo sapiens, PSA secretion, read-out: Rate of inhibition (%)
[5] = Homo sapiens, PSA secretion, concentration 12.5 ug/ml, read-out: Rate of inhibition (%)
[6] = Homo sapiens, PSA secretion, concentration 25 ug/ml, read-out: Rate of inhibition (%)
[7] = Homo sapiens, PSA secretion, concentration 50 ug/ml, read-out: Rate of inhibition (%)

Compound	Inhibition of androgen receptor (AR) activation (androgen receptor (AR))	Rate of inhibition (%) ([1]; concentration 5 ug/ml)	Rate of inhibition (%) ([1]; concentration 12.5 ug/ml)	Rate of inhibition (%) ([1]; concentration 25 ug/ml)	Rate of inhibition (%) ([1]; concentration 50 ug/ml)	inhibition at 1 µg/mL [1, 4] [%]	inhibition at 3 µg/mL [1, 4] [%]	inhibition at 6.25 µg/mL [1, 4] [%]	inhibition at 12.5 µg/mL [1, 5] [%]	inhibition at 25 µg/mL [1, 6] [%]	inhibition at 50 µg/mL [1, 7] [%]	Effect on estrogen receptor-α (ERα) activation [2]	Effect on estrogen receptor-β (ERβ) activation [3]	further results
CCC=CCC=CCC=CCCCCCCCC(=O)NCCO [Long chain amide, N-(2-ethoxyl)-9,12,15-linolenamide]	Inhibition of androgen receptor (AR) activation	9.7	31	63	71	–	–	–	–	–	–	–	–	Rate of inhibition (%) ([1]; concentration 20 ug/ml): 52%
CCC=CCC=CCC=CCCCCCCCC(=O)OC[C@@]1(O)O[C@H](CO)[C@@H](O)[C@@H]1O [Octadecatrienoic acid fructoside, 9,12,15-octadecatrienoic acid 1-O-β-D-fructoside]	Inhibition of androgen receptor (AR) activation	23	57	76	–	–	–	–	–	–	–	–	–	Rate of inhibition (%) ([1]; concentration 10 ug/ml): 40%
O=c1c(O)c(-c2ccc(O)cc2)oc2cc(O)cc(O)c12 [kaempferol]	–	–	–	–	–	53	60	69	65	66	89	–	–	–
O=c1cc(-c2ccc(O)c(O)c2)oc2cc(O)cc(O)c12 [luteolin]	Inhibition of androgen receptor (AR) activation	–	–	–	–	37	48	–	–	–	–	Inhibition	Inhibition	inhibition at 10 µg/mL ([1]; Homo sapiens, PSA secretion, concentration 10 ug/ml, read-out: Rate of inhibition (%)): 57%; inhibition at 20 µg/mL ([1]; Homo sapiens, PSA secretion, concentration 20 ug/ml, read-out: Rate of inhibition (%)): 67%; inhibition at 40 µg/mL ([1]; Homo sapiens, PSA secretion, concentration 40 ug/ml, read-out: Rate of inhibition (%)): 100%
O=C1C[C@@H](c2ccc(O)cc2)Oc2cc(O)cc(O)c21 [naringenin]	Inhibition of androgen receptor (AR) activation	–	–	–	–	–	–	78	84	87	88	Inhibition	Inhibition	–
hexadecanoic 1-O-β-D-fructoside [Hexadecanoic fructoside]	Inhibition of androgen receptor (AR) activation	4.5	8.4	26	42	–	–	–	–	–	–	–	–	Rate of inhibition (%) ([1]; concentration 100 ug/ml): 76%
